The text below walks through data of patent US9108960B2 (priority 2011, dated 2015).

A word on the MIC: it is the least concentration at which growth counts as inhibited.

≈ marks a conversion by molar mass, not a printed value.

For assay [1], the system named is M. tuberculosis H37Rv. The assay is described as follows: Antimycobacterial assay, MIC by broth microdilution / Nitrate Reductase Assay. The assay is classed as cell-based. The settings on record: Mycobacterium tuberculosis, exposure period 3-4 days. (In general: Dilution methods test growth across graded concentrations, often in twofold steps.)
In assay [2] the test system is M. tuberculosis Rif^R. The description is as above. The class given is cell-based. The settings on record: Mycobacterium tuberculosis, read-out: MIC M. tuberculosis Rif^R.
The subject of assay [3] is M. tuberculosis XDR-1. The assay is described as above. The settings on record: Mycobacterium tuberculosis, XDR1, read-out: MIC M. tuberculosis XDR-1. The assay is classed as cell-based.
The test system of assay [4] is M. tuberculosis H37Rv. The settings on record: literature values (footnote *); cited from earlier work.

Regarding `O=C(Nc1ccc(N2CCC(c3n[nH]c(=O)o3)CC2)cc1)c1ccc([N+](=O)[O-])o1` [Compound 8a, N2-4-[4-(5-Oxo-4,5-dihydro-1,3,4-oxadiazol-2-yl)piperidino]phenyl-5-nitro-2-furamide], the MIC turned out to be 1 µg/mL (≈ 2.5 µM) in assay [1], 1 µg/mL (≈ 2.5 µM) in assay [2] and 4 µg/mL (≈ 10 µM) in assay [3].
Take `CCn1nc(C2CCN(c3ccc(NC(=O)c4ccc([N+](=O)[O-])o4)cc3)CC2)oc1=O` [Compound 8c, N2-4-[4-(4-Ethyl-5-oxo-4,5-dihydro-1,3,4-oxadiazol-2-yl)piperidino]phenyl-5-nitro-2-furamide]: the values for the MIC in assay [1], in assay [2] and in assay [3] were 1 µg/mL (≈ 2.34 µM), 2 µg/mL (≈ 4.68 µM) and 4 µg/mL (≈ 9.36 µM), respectively.
Turning to `O=C(Nc1ccc(N2CCC(c3n[nH]c(=O)o3)CC2)c(F)c1)c1ccc([N+](=O)[O-])o1` [Compound 8e, N2-3-Fluoro-4-[4-(5-oxo-4,5-dihydro-1,3,4-oxadiazol-2-yl)piperidino]phenyl-5-nitro-2-furamide], the minimum inhibitory concentration (MIC) in assay [1] is 2 µg/mL (≈ 4.79 µM); in assay [2], 2 µg/mL (≈ 4.79 µM); in assay [3] it was 8 µg/mL (≈ 19.2 µM).
In the case of `Cn1nc(C2CCN(c3ccc(NC(=O)c4ccc([N+](=O)[O-])o4)cc3F)CC2)oc1=O` [Compound 8f, N2-3-Fluoro-4-[4-(4-methyl-5-oxo-4,5-dihydro-1,3,4-oxadiazol-2-yl)piperidino]phenyl-5-nitro-2-furamide], the MIC in assay [1] was 1 µg/mL (≈ 2.32 µM); in assay [2], 2 µg/mL (≈ 4.64 µM); in assay [3], 4 µg/mL (≈ 9.27 µM).
For `CCn1nc(C2CCN(c3ccc(NC(=O)c4ccc([N+](=O)[O-])o4)cc3F)CC2)oc1=O` [Compound 8g, N2-4-[4-(4-Ethyl-5-oxo-4,5-dihydro-1,3,4-oxadiazol-2-yl)piperidino]-3-fluorophenyl-5-nitro-2-furamide], in that order: 0.5 µg/mL (≈ 1.12 µM), 1 µg/mL (≈ 2.25 µM) and 2 µg/mL (≈ 4.49 µM).
For `O=c1[nH]nc(C2CCN(c3ccc(/N=C/c4ccc([N+](=O)[O-])o4)cc3)CC2)o1` [Compound 9a, 5-[1-(4-[(E)-1-(5-Nitro-2-furyl)methylidene]aminophenyl)-4-piperidyl]-2,3-dihydro-1,3,4-oxadiazol-2-one], in that order: 2 µg/mL (≈ 5.22 µM), 4 µg/mL (≈ 10.4 µM) and 4 µg/mL (≈ 10.4 µM).
Take `Cn1nc(C2CCN(c3ccc(/N=C/c4ccc([N+](=O)[O-])o4)cc3)CC2)oc1=O` [Compound 9b, 3-Methyl-5-[1-(4-[(E)-1-(5-nitro-2-furyl)methylidene]aminophenyl)-4-piperidyl]-2,3-dihydro-1,3,4-oxadiazol-2-one]: the results for the MIC in assay [1], in assay [2] and in assay [3] were 2 µg/mL (≈ 5.03 µM), 4 µg/mL (≈ 10.1 µM) and 8 µg/mL (≈ 20.1 µM), respectively.
The matching figures for `CCn1nc(C2CCN(c3ccc(/N=C/c4ccc([N+](=O)[O-])o4)cc3)CC2)oc1=O` [Compound 9c, 3-Ethyl-5-[1-(4-[(E)-1-(5-nitro-2-furyl)methylidene]aminophenyl)-4-piperidyl]-2,3-dihydro-1,3,4-oxadiazol-2-one]: 1 µg/mL (≈ 2.43 µM), 2 µg/mL (≈ 4.86 µM) and 4 µg/mL (≈ 9.72 µM).
The matching figures for `O=c1oc(C2CCN(c3ccc(/N=C/c4ccc([N+](=O)[O-])o4)cc3)CC2)nn1Cc1ccccc1` [Compound 9d, 3-Benzyl-5-[1-(4-[(E)-1-(5-nitro-2-furyl)methylidene]aminophenyl)-4-piperidyl]-2,3-dihydro-1,3,4-oxadiazol-2-one]: 2 µg/mL (≈ 4.22 µM), 4 µg/mL (≈ 8.45 µM) and 8 µg/mL (≈ 16.9 µM).
For `O=c1[nH]nc(C2CCN(c3ccc(/N=C/c4ccc([N+](=O)[O-])o4)cc3F)CC2)o1` [Compound 9e, 5-[1-(2-Fluoro-4-[(E)-1-(5-nitro-2-furyl)methylidene]aminophenyl)-4-piperidyl]-2,3-dihydro-1,3,4-oxadiazol-2-one], in that order: 2 µg/mL (≈ 4.98 µM), 2 µg/mL (≈ 4.98 µM) and 8 µg/mL (≈ 19.9 µM).
With `Cn1nc(C2CCN(c3ccc(/N=C/c4ccc([N+](=O)[O-])o4)cc3F)CC2)oc1=O` [Compound 9f, 5-[1-(2-Fluoro-4-[(E)-1-(5-nitro-2-furyl)methylidene]aminophenyl)-4-piperidyl]-3-methyl-2,3-dihydro-1,3,4-oxadiazol-2-one], the MIC is 2 µg/mL (≈ 4.81 µM) in assay [1], 4 µg/mL (≈ 9.63 µM) in assay [2] and 8 µg/mL (≈ 19.3 µM) in assay [3].
As for `CCn1nc(C2CCN(c3ccc(/N=C/c4ccc([N+](=O)[O-])o4)cc3F)CC2)oc1=O` [Compound 9g, 3-Ethyl-5-[1-(2-fluoro-4-[(E)-1-(5-nitro-2-furyl)methylidene]aminophenyl)-4-piperidyl]-2,3-dihydro-1,3,4-oxadiazol-2-one], the MIC in assay [1] is 1 µg/mL (≈ 2.33 µM); in assay [2], 2 µg/mL (≈ 4.66 µM); in assay [3] it was 4 µg/mL (≈ 9.32 µM).
For `O=c1oc(C2CCN(c3ccc(/N=C/c4ccc([N+](=O)[O-])o4)cc3F)CC2)nn1Cc1ccccc1` [Compound 9h, 3-Benzyl-5-[1-(2-fluoro-4-[(E)-1-(5-nitro-2-furyl)methylidene]aminophenyl)-4-piperidyl]-2,3-dihydro-1,3,4-oxadiazol-2-one], the MIC was determined as 2 µg/mL (≈ 4.07 µM) in assay [1], 2 µg/mL (≈ 4.07 µM) in assay [2] and 8 µg/mL (≈ 16.3 µM) in assay [3].
For `O=c1[nH]nc(C2CCN(c3ccc(NCc4ccc([N+](=O)[O-])o4)cc3)CC2)o1` [Compound 10a, 5-[1-(4-[(5-Nitro-2-furyl)methyl]aminophenyl)-4-piperidyl]-2,3-dihydro-1,3,4-oxadiazol-2-one], the MIC in assay [1] was 1 µg/mL (≈ 2.59 µM); in assay [2], 4 µg/mL (≈ 10.4 µM); in assay [3] it was 4 µg/mL (≈ 10.4 µM).
In the case of `Cn1nc(C2CCN(c3ccc(NCc4ccc([N+](=O)[O-])o4)cc3)CC2)oc1=O` [Compound 10b, 3-Methyl-5-[1-(4-[(5-nitro-2-furyl)methyl]aminophenyl)-4-piperidyl]-2,3-dihydro-1,3,4-oxadiazol-2-one], the MIC in assay [1] came to 2 µg/mL (≈ 5.01 µM); in assay [2], 4 µg/mL (≈ 10 µM); in assay [3], 8 µg/mL (≈ 20 µM).
For `CCn1nc(C2CCN(c3ccc(NCc4ccc([N+](=O)[O-])o4)cc3)CC2)oc1=O` [Compound 10c, 3-Ethyl-5-[1-(4-[(5-nitro-2-furyl)methyl]aminophenyl)-4-piperidyl]-2,3-dihydro-1,3,4-oxadiazol-2-one], in that order: 1 µg/mL (≈ 2.42 µM), 1 µg/mL (≈ 2.42 µM) and 4 µg/mL (≈ 9.68 µM).
As to `O=c1oc(C2CCN(c3ccc(NCc4ccc([N+](=O)[O-])o4)cc3)CC2)nn1Cc1ccccc1` [Compound 10d, 3-Benzyl-5-[1-(4-[(5-nitro-2-furyl)methyl]aminophenyl)-4-piperidyl]-2,3-dihydro-1,3,4-oxadiazol-2-one], the minimal inhibitory concentration (MIC) in assay [1] came out at 2 µg/mL (≈ 4.21 µM); in assay [2], 2 µg/mL (≈ 4.21 µM); in assay [3] it was 8 µg/mL (≈ 16.8 µM).
In the case of `O=c1[nH]nc(C2CCN(c3ccc(NCc4ccc([N+](=O)[O-])o4)cc3F)CC2)o1` [Compound 10e, 5-[1-(2-Fluoro-4-[(5-nitro-2-furyl)methyl]aminophenyl)-4-piperidyl]-2,3-dihydro-1,3,4-oxadiazol-2-one], the MIC in assay [1] is 2 µg/mL (≈ 4.96 µM); in assay [2], 2 µg/mL (≈ 4.96 µM); in assay [3], 8 µg/mL (≈ 19.8 µM).
`Cn1nc(C2CCN(c3ccc(NCc4ccc([N+](=O)[O-])o4)cc3F)CC2)oc1=O` [Compound 10f, 5-[1-(2-Fluoro-4-[(5-nitro-2-furyl)methyl]aminophenyl)-4-piperidyl]-3-methyl-2,3-dihydro-1,3,4-oxadiazol-2-one]: the results for the MIC in assay [1], in assay [2] and in assay [3] were 4 µg/mL (≈ 9.58 µM), 8 µg/mL (≈ 19.2 µM) and 16 µg/mL (≈ 38.3 µM), respectively.
The matching figures for `CCn1nc(C2CCN(c3ccc(NCc4ccc([N+](=O)[O-])o4)cc3F)CC2)oc1=O` [Compound 10g, 3-Ethyl-5-[1-(2-fluoro-4-[(5-nitro-2-furyl)methyl]aminophenyl)-4-piperidyl]-2,3-dihydro-1,3,4-oxadiazol-2-one]: 2 µg/mL (≈ 4.64 µM), 4 µg/mL (≈ 9.27 µM) and 4 µg/mL (≈ 9.27 µM).
For `O=c1oc(C2CCN(c3ccc(NCc4ccc([N+](=O)[O-])o4)cc3F)CC2)nn1Cc1ccccc1` [Compound 10h, 3-Benzyl-5-[1-(2-fluoro-4-[(5-nitro-2-furyl)methyl]aminophenyl)-4-piperidyl]-2,3-dihydro-1,3,4-oxadiazol-2-one], in that order: 2 µg/mL (≈ 4.05 µM), 4 µg/mL (≈ 8.11 µM) and 8 µg/mL (≈ 16.2 µM).
`O=C(Nc1cccc(F)c1)c1ccc([N+](=O)[O-])o1` [Compound 11a, N2-(3-fluorophenyl)-5-nitro-2-furamide]: the “MIC M. tuberculosis H37Rv” value in assay [4] was 0.12 µg/mL (≈ 0.48 µM).
As for `O=C(Nc1ccncc1)c1ccc([N+](=O)[O-])o1` [Compound 11b, N2-(4-pyridyl)-5-nitro-2-furamide], the “MIC M. tuberculosis H37Rv” value in assay [4] was 0.8 µg/mL (≈ 3.43 µM).
For the compound `O=C(Nc1ccc(N2CCC(Cc3ccccc3)CC2)cc1)c1ccc([N+](=O)[O-])o1` [Compound 11c, N2-[4-(4-benzylpiperidino)phenyl]-5-nitro-2-furamide], in assay [4], the “MIC M. tuberculosis H37Rv” value is 3.12 µg/mL (≈ 7.7 µM).
Consider `CC1CCCN(Cn2nc(-c3ccncc3)oc2=O)C1` (stereo not shown) [Compound 12a, 3-[(3-methylpiperidino)methyl]-5-(4-pyridyl)-2,3-dihydro-1,3,4-oxadiazol-2-one], for which the “MIC M. tuberculosis H37Rv” value in assay [4] was 3.13 µg/mL (≈ 11.4 µM).
Take `CN1CCN(Cn2nc(-c3ccncc3)oc2=O)CC1` [Compound 12b, 3-[(4-methylpiperazino)methyl]-5-(4-pyridyl)-2,3-dihydro-1,3,4-oxadiazol-2-one]: the “MIC M. tuberculosis H37Rv” value in assay [4] is 1.25 µg/mL (≈ 4.54 µM).
Take `O=c1oc(-c2ccncc2)nn1CN1CCC(Cc2ccccc2)CC1` [Compound 12c, 3-[(4-benzylpiperidino)methyl]-5-(4-pyridyl)-2,3-dihydro-1,3,4-oxadiazol-2-one]: the “MIC M. tuberculosis H37Rv” value in assay [4] is 2.5 µg/mL (≈ 7.13 µM).
For `NNC(=O)c1ccncc1` [Isoniazid, reference compound], it took 2.5 µg/mL (≈ 18.2 µM) to inhibit growth in assay [1] (MIC).
`CO[C@H]1/C=C/O[C@@]2(C)Oc3c(C)c(O)c4c(O)c(c(/C=N/N5CCN(C)CC5)c(O)c4c3C2=O)NC(=O)/C(C)=C\C=C\[C@H](C)[C@H](O)[C@@H](C)[C@@H](O)[C@@H](C)[C@H](OC(C)=O)[C@@H]1C` [Rifampicin, reference compound]: the MIC in assay [1] is 0.5 µg/mL (≈ 0.608 µM); in assay [2], over 128 µg/mL; in assay [3], 2 µg/mL (≈ 2.43 µM).
